Values of other authors in patent US20170189443A1, “COMPOSITIONS AND METHODS FOR TREATMENT OF DISEASES AND CONDITIONS EMPLOYING ORAL ADMINISTRATION OF SODIUM PENTOSAN POLYSULFATE AND OTHER PENTOSAN POLYSULFATE SALTS” (URIGEN PHARMACEUTICALS, INC., priority 2014, published 2017).
Where two headings read alike, the source gives them in different places.

How the values were obtained:
interstitial cystitis [1] = conditions: intravesical instillations
interstitial cystitis [2] = conditions: intravesical
[3] = oral administration
[4] = tritiated pentosan polysulfate, healthy human volunteers, Simon et al. 2005

C[S+](C)[O-] [DMSO, dimethylsulfoxide]
IC patients treated with benefit (interstitial cystitis [1]): ~50%

heparin
patients treated in whom the agent is effective (interstitial cystitis [2]): approximately 50%

sodium pentosan polysulfate
oral availability [3]: 2-6% | excreted through urine [4]: 6% | excreted unchanged in feces [4]: more than 94%

O=S(=O)(O)CCS [Mesnex, mesna]
frequency of adverse events (all AEs) (IV): 85% | frequency of adverse events (all AEs) (oral): 89%
